Legend:
Format in all cases: biochemical
KDR kinase = KDR kinase (Homo sapiens, UniProt P35968, DEL940-989/E990V); assay: KDR kinase assay K1 (pyruvate kinase/lactate dehydrogenase coupled, spectrophotometric); details: Method K1; read-out: KDR Data (IC50)
Procedure: (§1) IC50 values were calculated from a series of percent inhibition values determined at a range of inhibitor concentrations using software routines as implemented in the GraphPad Prism software package.

B-Raf(V599E) kinase = B-Raf(V599E) kinase (Homo sapiens, UniProt P15056, V600E); assay: B-Raf(V599E) kinase assay B1 (construct 1, MEK1 substrate, coupled spectrophotometric)
Procedure: The test compounds were incubated with the reaction mixtureat 30° C. for 2 h. […] The reaction rate was calculated using the […] time frame. […] IC50 values were calculated from a series of percent inhibition values determined at a range of inhibitor concentrations using software routines as implemented in the GraphPad Prism software package.

Abl kinase = target: T1, Abl kinase (Homo sapiens, UniProt P00519); assay: Abl kinase assay A1 (pyruvate kinase/lactate dehydrogenase coupled, spectrophotometric); details: Method A1; read-out: Abl Data (IC50)
T1 sequence (P00519 229-512): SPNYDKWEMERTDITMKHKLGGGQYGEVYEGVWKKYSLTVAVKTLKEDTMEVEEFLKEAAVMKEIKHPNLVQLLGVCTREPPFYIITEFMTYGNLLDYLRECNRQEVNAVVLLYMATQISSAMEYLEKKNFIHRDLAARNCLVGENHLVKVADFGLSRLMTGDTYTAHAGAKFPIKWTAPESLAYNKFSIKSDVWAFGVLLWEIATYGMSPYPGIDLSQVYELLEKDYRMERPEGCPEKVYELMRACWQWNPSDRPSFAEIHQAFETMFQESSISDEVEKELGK
Procedure: as §1

[1] = target: phosphorylated p-38-alpha kinase (Homo sapiens, UniProt Q16539); assay: P-38 alpha kinase assay P1 (coupled spectrophotometric, 2 h pre-incubation); details: method P1 (2 h pre-incubation); read-out: P-38 Data
phosphorylated p-38-alpha kinase, sequence (Q16539 1-360 isoform Q16539-2): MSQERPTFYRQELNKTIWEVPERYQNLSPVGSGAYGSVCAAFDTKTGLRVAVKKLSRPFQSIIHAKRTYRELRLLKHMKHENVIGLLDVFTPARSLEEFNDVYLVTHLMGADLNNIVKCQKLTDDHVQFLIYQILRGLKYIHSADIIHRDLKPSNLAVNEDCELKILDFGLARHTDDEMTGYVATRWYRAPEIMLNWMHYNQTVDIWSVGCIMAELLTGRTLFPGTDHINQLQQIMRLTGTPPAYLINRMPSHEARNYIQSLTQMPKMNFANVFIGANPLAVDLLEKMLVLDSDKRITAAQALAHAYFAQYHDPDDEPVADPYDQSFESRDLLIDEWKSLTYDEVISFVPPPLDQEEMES

KDR kinase, sequence (P35968 with tags, fused parts or gaps DEL940-989/E990V): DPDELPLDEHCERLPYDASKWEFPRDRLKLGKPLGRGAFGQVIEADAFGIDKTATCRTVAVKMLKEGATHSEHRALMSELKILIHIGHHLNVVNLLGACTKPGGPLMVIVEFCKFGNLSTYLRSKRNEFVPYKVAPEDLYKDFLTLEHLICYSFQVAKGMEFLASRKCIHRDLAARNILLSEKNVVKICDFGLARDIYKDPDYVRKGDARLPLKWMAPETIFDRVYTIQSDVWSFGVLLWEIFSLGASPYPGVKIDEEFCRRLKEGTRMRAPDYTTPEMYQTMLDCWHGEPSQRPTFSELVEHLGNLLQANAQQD
B-Raf(V599E) kinase, sequence (P15056 with tags, fused parts or gaps V600E): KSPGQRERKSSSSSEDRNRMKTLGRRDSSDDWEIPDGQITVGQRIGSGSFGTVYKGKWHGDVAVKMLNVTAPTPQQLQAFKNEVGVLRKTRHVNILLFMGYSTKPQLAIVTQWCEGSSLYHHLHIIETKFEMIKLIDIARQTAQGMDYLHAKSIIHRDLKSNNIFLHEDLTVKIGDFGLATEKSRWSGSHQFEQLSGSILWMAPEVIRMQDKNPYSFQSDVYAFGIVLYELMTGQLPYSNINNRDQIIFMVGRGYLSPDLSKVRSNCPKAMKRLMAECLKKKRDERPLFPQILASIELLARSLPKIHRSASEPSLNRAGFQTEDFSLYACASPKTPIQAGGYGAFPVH

In the case of `CC(C)(C)c1cc(NC(=O)Nc2ccc(Cl)cc2)n(-c2cc(CN)c3ccccc3c2)n1` [Example 68, 1-[1-(4-(aminomethyl)naphthalen-2-yl)-3-t-butyl-1H-pyrazol-5-yl]-3-(4-chlorophenyl)urea], the IC50 (KDR kinase) is reported as 1400 nM and the IC50 (B-Raf(V599E) kinase) is reported as 24 nM.
In the case of `CC(C)(C)c1cc(NC(=O)Nc2cccc(Cl)c2Cl)n(-c2cc(CC(N)=O)c3ccccc3c2)n1` [Example 78, 2-(3-{3-t-butyl-5-[3-(2,3-dichlorophenyl)ureido]pyrazol-1-yl}naphthalen-1-yl)acetamide], the IC50 (Abl kinase) is reported as 72 nM and the IC50 (B-Raf(V599E) kinase) is reported as 3.5 nM.
For `CC(C)(C)c1cc(NC(=O)Nc2ccc(F)c(F)c2F)n(-c2cc(CC(N)=O)c3ccccc3c2)n1` [Example 80, 1-(1-(4-(2-amino-2-oxoethyl)naphthalen-2-yl)-3-t-butyl-1H-pyrazol-5-yl)-3-(2,3,4-trifluorophenyl)urea], the IC50 (Abl kinase) was 79 nM and the IC50 (B-Raf(V599E) kinase) was 4.5 nM.
In the case of `CC(C)(C)c1cc(NC(=O)Nc2ccc(F)cc2F)n(-c2cc(CC(N)=O)c3ccccc3c2)n1` [Example 82, 1-(1-(4-(2-amino-2-oxoethyl)naphthalen-2-yl)-3-t-butyl-1H-pyrazol-5-yl)-3-(2,4-difluorophenyl)urea], the IC50 (Abl kinase) is reported as 360 nM and the IC50 (B-Raf(V599E) kinase) is reported as 5.9 nM.
`CC(C)(C)c1cc(NC(=O)Nc2cc(F)cc(F)c2)n(-c2cc(CC(N)=O)c3ccccc3c2)n1` [Example 83, 1-(1-(4-(2-amino-2-oxoethyl)naphthalen-2-yl)-3-t-butyl-1H-pyrazol-5-yl)-3-(3,5-difluorophenyl)urea] showed an IC50 (Abl kinase) of 87 nM and an IC50 (B-Raf(V599E) kinase) of 8.5 nM.
In the case of `CC(C)(C)c1cc(NC(=O)Nc2ccc(F)cc2)n(-c2cc(CC(N)=O)c3ccccc3c2)n1` [Example 84, 1-(1-(4-(2-amino-2-oxoethyl)naphthalen-2-yl)-3-t-butyl-1H-pyrazol-5-yl)-3-(4-fluorophenyl)urea], the IC50 (Abl kinase) is reported as 390 nM and the IC50 (B-Raf(V599E) kinase) is reported as 11 nM.
`CC(=O)c1cc(-n2nc(C(C)(C)C)cc2NC(=O)Nc2cccc(Cl)c2Cl)cc2ccccc12` [Example 100, 1-(1-(4-acetylnaphthalen-2-yl)-3-t-butyl-1H-pyrazol-5-yl)-3-(2,3-dichlorophenyl)urea] showed an IC50 (Abl kinase) of 150 nM, an IC50 (B-Raf(V599E) kinase) of 6.9 nM and an IC50 [1] of 5 nM.
`CC(C)(C)c1cc(NC(=O)Nc2cccc(Cl)c2Cl)n(-c2ccc3c(c2)C(=O)CC3)n1` [Example 102, 1-[5-t-butyl-2-(3-oxo-indan-5-yl)-2H-pyrazol-3-yl]-3-(2,3-dichlorophenyl)urea] showed an IC50 (Abl kinase) of 110 nM and an IC50 (B-Raf(V599E) kinase) of 2.5 nM.
For `CC(C)(C)c1cc(NC(=O)Nc2cccc(Cl)c2Cl)n(-c2ccc3c(c2)C(O)CC3)n1` (centres unmarked) [Example 103, 1-[5-t-butyl-2-(3-hydroxy-indan-5-yl)-2H-pyrazol-3-yl]-3-(2,3-dichlorophenyl)urea], the IC50 (Abl kinase) was 240 nM and the IC50 (B-Raf(V599E) kinase) was 4.5 nM.
For `CC(C)(C)c1cc(NC(=O)Nc2cccc(Cl)c2Cl)n(-c2ccc3c(c2)C(N)CC3)n1` (centres unmarked) [Example 105, 1-[2-(3-amino-indan-5-yl)-5-t-butyl-2H-pyrazol-3-yl]-3-(2,3-dichlorophenyl)urea], the IC50 (Abl kinase) was 240 nM and the IC50 (B-Raf(V599E) kinase) was 12 nM.
`CC(=O)N1CCc2cc(-n3nc(C(C)(C)C)cc3NC(=O)Nc3cccc(Cl)c3Cl)ccc21` [Example 107, 1-(1-(1-acetylindolin-5-yl)-3-t-butyl-1H-pyrazol-5-yl)-3-(2,3-dichlorophenyl)urea] was tested, and the IC50 (Abl kinase) was 180 nM and the IC50 (B-Raf(V599E) kinase) was 2.1 nM.
Compound `CC(C)(C)c1cc(NC(=O)Nc2cccc(C#N)c2)n(-c2ccc3c(c2)CCN3)n1` [Example 111, 1-(3-t-butyl-1-(indolin-5-yl)-1H-pyrazol-5-yl)-3-(3-cyanophenyl)urea] has an IC50 (Abl kinase) of 620 nM and an IC50 (B-Raf(V599E) kinase) of 97 nM.
`CC(C)(C)c1cc(NC(=O)Nc2cccc(Cl)c2Cl)n(-c2ccc3c(c2)N(S(C)(=O)=O)CC3)n1` [Example 113, 1-(3-t-butyl-1-(1-(methylsulfonyl)indolin-6-yl)-1H-pyrazol-5-yl)-3-(2,3-dichlorophenyl)urea] was tested, and the IC50 (Abl kinase) was 190 nM and the IC50 (B-Raf(V599E) kinase) was 3.3 nM.
With `CC(C)(C)c1cc(NC(=O)Nc2cccc(C#N)c2)n(-c2ccc3c(c2)NCC3)n1` [Example 114, 1-(3-t-butyl-1-(indolin-6-yl)-1H-pyrazol-5-yl)-3-(3-cyanophenyl)urea] the IC50 (Abl kinase) was 640 nM and the IC50 (B-Raf(V599E) kinase) was 115 nM.
For `CC(C)(C)c1cc(NC(=O)Nc2ccc(Cl)cc2)n(-c2ccc3c(c2)CNCC3)n1` [Example 124, 1-[3-t-butyl-1-(1,2,3,4-tetrahydroisoquinolin-7-yl)-1H-pyrazol-5-yl]-3-(4-chloro-phenyl)urea], the IC50 (Abl kinase) was 1400 nM and the IC50 (B-Raf(V599E) kinase) was 173 nM.
`CC(C)(C)c1cc(NC(=O)Nc2ccc(Cl)cc2)n(-c2ccc3c(c2)CN(C(=O)NS(C)(=O)=O)CC3)n1` [Example 128, N-(7-{3-t-butyl-5-[3-(4-chloro-phenyl)ureido]pyrazol-1-yl}-3,4-dihydro-1H-isoquinoline-2-carbonyl)methane-sulfonamide] was tested, and the IC50 (Abl kinase) was 7500 nM and the IC50 (B-Raf(V599E) kinase) was 67 nM.
Work on `Cc1ccc(NC(=O)Nc2cc(C(C)(C)C)nn2-c2ccc3c(c2)CCNC3)cc1Nc1ncccn1` [Example 142, 1-(3-t-butyl-1-(1,2,3,4-tetrahydro-isoquinolin-6-yl)-1H-pyrazol-5-yl)-3-(4-methyl-3-(pyrimidin-2-ylamino)phenyl)-urea] yielded an IC50 (Abl kinase) of 170 nM and an IC50 (B-Raf(V599E) kinase) of 35 nM.
`CC(C)(C)c1cc(NC(=O)Nc2cccc(F)c2F)n(-c2ccc3c(c2)CCNC3)n1` [Example 144, 1-(3-t-butyl-1-(1,2,3,4-tetrahydroiso-quinolin-6-yl)-1H-pyrazol-5-yl)-3-(2,3-difluorophenyl)-urea] was tested, and the IC50 (Abl kinase) was 200 nM and the IC50 (B-Raf(V599E) kinase) was 9.6 nM.
`CC(C)(C)c1cc(NC(=O)Nc2ccc(F)cc2F)n(-c2ccc3c(c2)CCNC3)n1` [Example 145, 1-(3-t-butyl-1-(1,2,3,4-tetrahydroiso-quinolin-6-yl)-1H-pyrazol-5-yl)-3-(2,4-difluorophenyl)-urea] was tested, and the IC50 (Abl kinase) was 410 nM and the IC50 (B-Raf(V599E) kinase) was 13 nM.
In the case of `CC(C)(C)c1cc(NC(=O)Nc2ccc(F)c(F)c2F)n(-c2ccc3c(c2)CCNC3)n1` [Example 147, 1-(3-t-butyl-1-(1,2,3,4-tetrahydroiso-quinolin-6-yl)-1H-pyrazol-5-yl)-3-(2,3,4-trifluorophenyl)-urea], the IC50 (Abl kinase) is reported as 140 nM and the IC50 (B-Raf(V599E) kinase) is reported as 10 nM.
Work on `CC(C)(C)c1cc(NC(=O)Nc2cccc(Cl)c2Cl)n(-c2ccc3[nH]c(=O)ccc3c2)n1` [Example 155, 1-(3-t-butyl-1-(2-oxo-1,2-dihydroquinolin-6-yl)-1H-pyrazol-5-yl)-3-(2,3-dichlorophenyl)-urea] yielded an IC50 (Abl kinase) of 260 nM, an IC50 (B-Raf(V599E) kinase) of 1.4 nM and an IC50 [1] of 110 nM.
For `CC(C)(C)c1cc(NC(=O)Nc2cccc(Cl)c2Cl)n(-c2cc(CCN)c3ccccc3c2)n1` [Example 193, 1-(1-(4-(2-aminoethyl)naphthalen-2-yl)-3-t-butyl-1H-pyrazol-5-yl)-3-(2,3-dichlorophenyl)urea], the IC50 (Abl kinase) was 81 nM and the IC50 (B-Raf(V599E) kinase) was 2.6 nM.
`CC(C)(C)c1cc(NC(=O)Nc2cc(F)c(F)cc2F)n(-c2cccc(C#N)c2)n1` [Example 207, 1-(3-t-butyl-1-(3-cyanophenyl)-1H-pyrazol-5-yl)-3-(2,4,5-trifluorophenyl)urea] showed an IC50 (KDR kinase) of 340 nM.
For `CC(C)(C)c1cc(NC(=O)Nc2cc(F)c(F)cc2F)n(-c2cccc(C(=N)N)c2)n1` [Example 214, 1-(3-t-butyl-1-(3-carbamimidoylphenyl)-1H-pyrazol-5-yl)-3-(2,4,5-trifluorophenyl)urea], the IC50 (KDR kinase) was 840 nM.
`CC(C)(C)c1cc(NC(=O)Nc2cccc(F)c2F)n(-c2cccc(CO)c2)n1` [Example 220, 1-{3-t-butyl-1-[3-(hydroxymethyl)phenyl]-1H-pyrazol-5-yl}-3-(2,3-difluorophenyl)urea] gave an IC50 (KDR kinase) of 950 nM and an IC50 (B-Raf(V599E) kinase) of 33 nM.
`CC(C)(C)c1cc(NC(=O)Nc2cccc(Cl)c2)n(-c2cccc(CN)c2)n1` [Example 227, 1-{1-[3-(aminomethyl)phenyl]-3-t-butyl-1H-pyrazol-5-yl}-3-(3-chloro-phenyl)urea] gave an IC50 (KDR kinase) of 9300 nM and an IC50 (B-Raf(V599E) kinase) of 61 nM.
Compound `CC(C)(C)c1cc(NC(=O)Nc2cccc(Cl)c2)n(-c2cccc(CCN)c2)n1` [Example 257, 1-{1-[3-(2-aminoethyl)phenyl]-3-t-butyl-1H-pyrazol-5-yl}-3-(3-chlorophenyl)urea] has an IC50 (KDR kinase) of 6600 nM and an IC50 (B-Raf(V599E) kinase) of 62 nM.
`CC(C)(C)c1cc(NC(=O)Nc2cccc(Cl)c2Cl)n(-c2cccc(-c3cccnc3)c2)n1` [Example 276, 1-[5-t-butyl-2-(3-pyridin-3-yl-phenyl)-2H-pyrazol-3-yl]-3-(2,3-dichlorophenyl)urea] was tested, and the IC50 (Abl kinase) was 2300 nM and the IC50 (B-Raf(V599E) kinase) was 4.9 nM.
For `CC(C)(C)c1cc(NC(=O)Nc2ccccc2)n(-c2ccc3ncccc3c2)n1` [Example 282, 1-[3-t-butyl-1-(quinolin-6-yl)-1H-pyrazol-5-yl]-3-phenylurea], the IC50 (KDR kinase) was 2400 nM and the IC50 (B-Raf(V599E) kinase) was 41 nM.
`CC(C)(C)c1cc(NC(=O)Nc2ccc(F)c(F)c2F)n(-c2ccc3ncccc3c2)n1` [Example 285, 1-(3-t-butyl-(quinolin-6-yl)-1H-pyrazol-5-yl)-3-(2,3,4-trifluorophenyl)urea] was tested, and the IC50 (KDR kinase) was 380 nM and the IC50 (B-Raf(V599E) kinase) was 5.1 nM.
In the case of `CC(C)(C)c1cc(NC(=O)Nc2cccc(Cl)c2Cl)n(-c2cccc(CC(=O)O)c2)n1` [Example 373, 2-(3-{3-t-butyl-5-[3-(2,3-dichlorophenyl)-ureido]-1H-pyrazol-1-yl}phenyl)acetic acid], the IC50 (Abl kinase) is reported as 3500 nM and the IC50 (B-Raf(V599E) kinase) is reported as 3.2 nM.

— patent US8163756B2 (priority 2004, dated 2012)
